Four molecules from PMC9233675, “Ru(II) photocages enable precise control over enzyme activity with red light” (Nature Communications, 2022) can be followed below.

“And” between values parts separate entries of the source, which are not always exact repeats. Identical values can stand only once.

Data set [1] in a line: Stability of compounds in mouse liver microsomes. The conditions noted are these: for Remaining, % (NCF=60min): mouse liver microsomes, no co-factor (no NADPH); for CLint scaled / Remaining, % (T=60min) / half-life / microsomal CLint: mouse, liver microsomes.
The target of another data set is T1, recombinant CYP1B1 (Homo sapiens, UniProt Q16678).
T1 sequence (Q16678 51-543 limits assumed): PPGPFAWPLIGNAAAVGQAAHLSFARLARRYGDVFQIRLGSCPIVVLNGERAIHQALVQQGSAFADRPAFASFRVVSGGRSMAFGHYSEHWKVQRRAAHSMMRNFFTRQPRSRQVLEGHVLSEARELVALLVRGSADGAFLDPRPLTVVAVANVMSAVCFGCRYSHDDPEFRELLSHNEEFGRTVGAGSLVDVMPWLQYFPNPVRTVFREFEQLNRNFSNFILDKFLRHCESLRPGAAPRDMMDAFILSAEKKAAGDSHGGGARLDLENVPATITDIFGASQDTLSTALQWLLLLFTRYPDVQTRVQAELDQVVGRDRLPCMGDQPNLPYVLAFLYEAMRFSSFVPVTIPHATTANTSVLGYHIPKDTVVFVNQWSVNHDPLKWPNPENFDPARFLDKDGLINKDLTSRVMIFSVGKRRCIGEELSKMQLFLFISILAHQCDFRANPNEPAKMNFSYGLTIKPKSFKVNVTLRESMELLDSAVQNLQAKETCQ
Nature of the data set: CYP1B1 stability: thermal melt by circular dichroism. How it is done:
Circular Dichroism (CD) was used to monitor changes in the secondary structure with increasing temperature. […] CYP1B1 was expressed and purified as reported. […] Spectra were taken scanning from 200 to 260 nm in duplicate. The temperature was increased followed by a 3 min equilibration period before spectra acquisition. The ellipticity values at 230 nm were plotted against temperature and fit to determine the Tm (Prism).

Data set [2] is described as follows: Irradiation-induced 1O2 production (Singlet Oxygen Sensor Green assay). The conditions noted are these: sheet S27; triplicate columns; DMSO control about 0.9. It is filed as physicochemical. From the text: Some Ru(II) complexes can generate singlet oxygen when photoexcited, a feature that has been applied to the selective photoinactivation of proteins. In this approach, the Ru(II) system is conjugated to a peptide that is a specific ligand for the protein target; binding of the peptide to the protein ensures close proximity of the Ru(II) center and thus, upon photoexcitation, the generation of a high local concentration of singlet oxygen. […] As very little of this reactive oxygen species was generated, inactivation of the CYP enzymes by this process appears unlikely.
Supplementary Figure 27. Determination of irradiation-induced 1O2 production with 660 nm light (1 hr = 58.7 J/cm2)
using the Singlet Oxygen Sensor Green assay. […]

The nature of data set [3]: Stability of complexes at 37 °C in the dark (HPLC, UV/Vis). The format is physicochemical. The conditions noted are these: for Stability, % remaining at 24 h: 37 °C in H2O, dark. On the procedure: The stability of each complex was assessed over 24 h under aqueous conditions at 37 °C (Supplementary Figs. 12–15). […] Given the potency of the caged inhibitor, thermal stability is of critical importance, making complex 6 the preferred photocaged candidate.
Opti-MEM with 2% fetal bovine serum (right) at 37 °C in the dark over the course of 0 (blue line) to 24 h (black dashed line). Compounds were tested in triplicate (n = 3), the data for one replicate are presented. Complexes 4 and 5 slowly degraded in the experiment condition (see HPLC traces, Figures S13–14). The decrease in absorbance for complex 6 is explained by the slow aggregation of the compound in the 96-well plate.
(1 picture or pasted object on this page, not shown here)
Supplementary Figure 13. a HPLC chromatogram analysis of stability of 4 (50 µM in di-H2O) before (black dashed line, purity > 92 % ) and after incubation at 37 °C for 24 hours (red line). At 24 hours, 43 % of 4 was […]
Supplementary Figure 14. HPLC chromatogram analysis of stability of 5 (50 µM in di-H2O) before (black dashed line, purity > 97 %) and after incubation at 37 °C for 24 hours (red line). At 24 hours, 50 % of 5 was observed […]
Supplementary Figure 15. HPLC chromatogram analysis of stability of 6 (40 µM in di-H O : MeCN mixture (4:1), […]
MeCN was added to reduce the aggregation) before (black dashed line, purity > 99.5 %) and after incubation at 37 °C for 24 hours. At 24 hours, less than 2 % degradation was observed (calculated by area, detection wavelength = […]
Supplementary Figure 16. HPLC chromatogram analysis of stability of 6 (40 µM) in 5 % DMSO / di-H2O with a 100 μM GSH, b 100 μM imidazole and c acidic condition (pH = 1) after incubation at 37 °C for 72 hours. Less than […]
detection wavelength = 280 nm). […]
imidazole and c acidic condition (pH = 1) after incubation at 37 °C for 72 hours. d At 72 hours less than 7 % degradation was observed by HPLC at pH = 1 (calculated by area, detection wavelength = 280 nm). Compounds were tested in triplicate (n = 3), the data for one replicate are presented.

As for `COc1ccc(C=Cc2ccncc2)c(OC)c1` [Compound 3], in data set [1], the “Remaining, % (NCF=60min)” value is 137.9%; the CLint scaled was 114 L/h/kg; the “Remaining, % (T=60min)” value was 0.1%; the half-life was 2.89 min. In addition, the microsomal CLint in data set [1] came out at 480 µL/min/mg. The “increase of thermal stability of CYP1B1” value on recombinant CYP1B1 (10 μM compound) turned out to be 2 °C. Moreover, the Tm at recombinant CYP1B1 (recombinant CYP1B1 + 10 µM compound, no compound 47.9) is 50.4 +/− 0.26 °C.
As to `COc1ccc(/C=C/c2cc[n+]([Ru-4]345([n+]6ccccc6-c6cccc([n+]63)-c3cccc[n+]34)[n+]3c(cc(C(=O)[O-])c4ccccc43)-c3cc(C(=O)[O-])c4ccccc4[n+]35)cc2)c(OC)c1` [Compound 6], in data set [2], the “irradiation-induced 1O2 production (Singlet Oxygen Sensor Green signal, relative)” value was 0.9896 and 0.937 and 1.032. Also, in data set [3] (5 % DMSO / di-H2O, 100 μM GSH, 37 °C, 72 hours), the “degradation with GSH” value is “less than 2%”. Also, the degradation with imidazole entry in data set [3] (5 % DMSO / di-H2O, 100 μM imidazole, 37 °C, 72 hours) is “less than 2%”. Moreover, the “Stability, % remaining at 24 h” value in data set [3] (HPLC) was 98.6%. Moreover, in data set [3] (37 °C, di-H2O : MeCN mixture (4:1), HPLC), the “degradation at 24 hours” value is recorded as “less than 2%”.
Consider `COc1ccc(/C=C/c2cc[n+]([Ru-4]345([n+]6ccccc6-c6cccc([n+]63)-c3cccc[n+]34)[n+]3c(cc(C(=O)[O-])c4ccccc43)-c3cc(C(=O)[O-])c4ccccc4[n+]35)cn2)c(OC)c1` [Compound 5], for which the “irradiation-induced 1O2 production (Singlet Oxygen Sensor Green signal, relative)” value in data set [2] was 1.081 and 0.9897 and 0.9798. The “Stability, % remaining at 24 h” value in data set [3] (HPLC) amounted to 50%.
Turning to `COc1ccc(/C=C/c2ccncn2)c(OC)c1` [Compound 2], in data set [1], the “Remaining, % (NCF=60min)” value worked out at 111.5%; the CLint scaled is 217 L/h/kg; the “Remaining, % (T=60min)” value is recorded as 0.1%; the half-life is 1.51 min. This molecule registered a microsomal CLint in data set [1] of 915 µL/min/mg.
